Test results as given in patent US11135228B2, “Cysteinyl-proresolving mediators that promote resolution of infection and organ protection” (THE BRIGHAM AND WOMEN'S HOSPITAL, priority 2014, dated 2021).

Columns and labels:
[1] = system: Human macrophages; assay: Macrophage phagolysosomal acidification (pHrodo dye); type: cell-based; settings: in the presence of bacteria, 60 min
Experimental: Macrophage phagolysosomal acidification was assessed by incubating macrophages with pHrodo dye (Invitrogen) following the manufacturer's instructions. Subsequently, cells were incubated with 1 nM of test compounds (15 min at 37° C.), E. coli (2.5×10^6 CFU/well) were added, and fluorescence was assessed after 60 min (37° C.) using a BZ9000 microscope equipped with a ×20 objective (Keyence, Itasca, Ill., USA) and a fluorescence plate reader.

[2] = system: Human macrophages; assay: Human macrophage efferocytosis of apoptotic PMN; type: cell-based; settings: 17-series sulfido-conjugates 0.1-10 nM; apoptotic PMNs 40 min
Experimental: (§1) Leukocyte phagocytosis: Macrophages were prepared from peripheral blood mononuclear cells (PBMC) purchased from Children's Hospital Blood Bank, Boston, and phagocytosis was assessed as in (11). Briefly, macrophages (5×10^4 cells,/well) were incubated with SCI (10 pM-100 nM), SCII (10 pM-100 nM), MaR1 (10 pM-100 nM), or vehicle (0.1% EtOH in DPBS) for 15 min at 37° C., then fluorescent labeled apoptotic cells were added and cells incubated 45 min at 37° C. Extracellular fluorescence was quenched using Trypan blue (1:15 dilution) and phagocytosis assessed using an M3 SpectraMax plate reader. In select experiments, macrophages (5×10^4 cells/well) or neutrophils (1×10^5 cells/well) were obtained from human healthy volunteers' peripheral blood as in (11) in accordance with Partners Human Research Committee Protocol (#1999P001297), and incubated with H2DCFDA (5 μM, 30 min, 37° C.), then with SCI (10 pM-100 nM), SCI (10 pM-100 nM) or vehicle (0.1% EtOH in DPBS, 15 min, 37° C.) and E. coli (1:50 leukocytes to E. coli, 45 min, 37° C.) Intracellular reactive oxygen species were determined by measuring fluorescence using an M3 SpectraMax plate reader. To assess bacterial phagocytosis, macrophages (5×10^4 cells/well) or neutrophils (1×10^5 cells/well) were incubated with SCI (10 pM-100 nM), SCII (10 pM-100 nM) or vehicle (0.1% EtOH in DPBS, 15 min, 37° C.), then incubated with BacLight Green (Molecular Probes) labeled E. coli (1:50 leukocytes to E. coli, 45 min, 37° C.), Extracellular fluorescence was quenched using Trypan blue (1:15 dilution), and phagocytosis assessed using an M3 SpectraMax plate reader.
In determined experiments, human macrophages were incubated with SC isolates from regenerating planaria for 15 min at 37° C., then fluorescent labeled apoptotic cells were added and efferocytosis was assessed as detailed above.
Macrophage bacterial phagocytosis, efferocytosis, and phagolysosontal acidification: Human macrophages were plated in 96-well plates (5×10^4 cells per well) for 24 h, and phagocytosis or efferocytosis was assessed as in (14). In brief, apoptotic PMNs were obtained by culturing cells overnight in PBS^−/− (5×10^6 cells/ml). Apoptotic human PMNs were labeled with bisbenzimide H33342 trihydrochloride (Sigma-Aldrich). Human macrophages were incubated with 0.1-10 nM concentration of test products, and then labeled apoptotic PMNs were cocultured with macrophages for 40 min [37° C. […]]. Fluorescence was read on a SpectraMax M3 plate reader (Molecular Devices, Sunnyvale, Calif., USA), and results were analyzed using SoftMax Pro (Molecular Devices).

[3] = system: Human macrophages; assay: Human macrophage phagocytosis of fluorescently labeled E. coli; type: cell-based; settings: 17-series sulfido-conjugates 0.1-10 nM, 15 min; bacteria 40 min
Experimental: as §1
Macrophage phagocytosis was assessed using fluorescently labeled E. coli (serotype O6:K2;H1) with BacLight Green Bacterial Stain (Life Technologies, Eugene, Oreg., USA). E. coli [2.5×10^6 colony-forming units (CFL)/well] were then added to macrophages previously plated in 96-well plates (40 min at 37° C.) and incubated with 0.1-10 nM concentration of test compounds [15 min at 37° C. (pH 7.45)]. Fluorescence was measured on a SpectraMax M3 plate reader, and results were analyzed using SoftMax Pro.

[4] = system: Mice (hind-limb ischemia/reperfusion); assay: Hind-limb ischemia reperfusion, second organ reflow injury; type: in vivo, mouse; settings: SCI plus SCII 50 ng each or RvD1 500 ng i.v.
Experimental: Ischemia Reperfusion: Mice were anesthetized by intraperitoneal (i.p.) injection of […]. To initiate hind-limb ischemia, tourniquets consisting of a rubber band were placed on each hind limb. Ten min prior to the initiation of reperfusion, Vehicle (saline containing 0.1% EtOH), SCI (50 ng) plus SCII (50 ng) or Resolvin D1 (500 ng) were administered by intravenous injection. At the end of reperfusion (3 h), mice were euthanized, blood collected via cardiac puncture and plasma isolated for lipid mediator metabololipidomics. Lungs were harvested, left lungs were frozen in liquid nitrogen and stored at −80° C. Right lungs were stored in 10% (v/v) buffered formalin and processed for histology and hematoxylin and eosin (H&E) staining by the Children's Hospital Boston Core Histology Facility, imaged using a Keyence BZ-9000 microscope and BZ II imaging software (Keyence) Expression of Ki67 and Roof plate-specific Spondin-3 (RSPO3) were assessed by immunofluorescence staining. Briefly, sections were deparafinized in xylene and rehydrated, then blocked in 10% horse serum and stained with either rat anti-mouse RSPON3 antibody (R&D Systems) for 1 h at room temperature and then with sheep anti-rat Alexa-594 conjugated antibody (BioLegend), or with rabbit anti-mouse antibody (Abeam) and then with donkey anti-rabbit Alexa-488 antibody (BioLegend). Slides were mounted in Vector Shield mounting solution with DAPI (Vector Labs) and immunofluorescence assessed using a Zeiss LSM 510 Meta confocal microscope. Images were processed using ImageJ software (National Institutes of Health) and Adobe Photoshop CS6 (Adobe Systems incorporated) software. Frozen lungs were gently dispersed, centrifuged, and tissue myeloperoxidase (MPO) levels were determined using mouse MPO ELISA (R&D Systems).

[5] = system: γ-glutamyl transferase; assay: Sulfido-conjugate levels in activated human macrophages with γ-glutamyl transferase inhibitor; type: cell-based; settings: Acivicin 2.5 mM
Experimental: Human macrophages (3×10^7 cells/ml) were incubated with DHA (1 μg, 37° C., PBS, pH 7.45) and E. coli (1.5×10^8 […]). Incubations were stopped with 2 volumes ice-cold methanol, products were extracted and levels assessed by LC-MS-MS. In select experiments, macrophages were incubated with Acivicin (2.5 mM, 37° C. PBS, pH 7.45) prior to addition of DHA (1 μg) and. Acivicin (2.5 mM) and products assessed by LC-MS-MS.
In select experiments, human macrophages (˜4.5×10^7 cells/ml) were incubated with DHA (10.5 μM) or 17-HpD [10 μM at 37° C. (pH 7.45)] and E. coli (1:50) for 30 min at 37° C. Incubations were stopped with 2 volumes of ice-cold methanol, products were extracted, and levels assessed by LC-MS-MS. Macrophages were also incubated with or without Acivicin [2.5 mM at 37° C., PBS (pH 7.45)], a γ-glutamyl transferase (GGT) agent that inhibits LT D4 formation (16), before addition of 17-HpD (10 μM) and E. coli (1:50; 60 min), and products were taken to […].

[6] = system: γ-glutamyl transferase; assay: SCI and SCII levels in regenerating planaria with γ-glutamyl transferase inhibitor; type: in vivo, Dugesia japonica; settings: Acivicin 2.5 mM

## CC/C=C\CC(O)C(/C=C/C=C/C=C\C/C=C\C/C=C\CCC(=O)O)SCC(NC(=O)CCC(N)C(=O)O)C(=O)NCC(=O)O (stereo not shown) [PCTR1, 16-glutathionyl, 17-hydroxy-4Z,7Z,10,12,14,19Z-docosahexaenoic acid]
[1]
  macrophage phagolysosomal acidification: dose-dependent increase
[2]
  human macrophage efferocytosis (uptake of apoptotic human PMNs): dose-dependent increase
[3]
  human macrophage phagocytosis of E. coli: dose-dependent increase

## CC/C=C\C[C@H](O)/C=C/C=C\C=C\C=C\[C@@H](SC[C@H](NC(=O)CC[C@H](N)C(=O)O)C(=O)NCC(=O)O)[C@@H](O)C/C=C\CCC(=O)O [RCTR1, 8-glutathionyl, 7,17-hydroxy-4Z,9,11,13Z,15E,19Z-docosahexaenoic acid]
[1]
  macrophage phagolysosomal acidification: dose-dependent increase
[2]
  human macrophage efferocytosis (uptake of apoptotic human PMNs): dose-dependent increase
[3]
  human macrophage phagocytosis of E. coli: dose-dependent increase

## CC/C=C\C[C@H](O)\C=C/C=C/C=C/[C@H](O)C/C=C\C/C=C\CCC(=O)O [PD1, 10R,17S-dihydroxy-docosa-4Z,7Z,11E,13E,15Z,19Z-hexaenoic acid, reference compound]
[3]
  human macrophage phagocytosis of E. coli: comparable

## CC/C=C\C[C@H](O)/C=C/C=C\C=C\C=C\[C@@H](O)[C@@H](O)C/C=C\CCC(=O)O [RvD1, 7S,8R,17S-trihydroxy-docosa-4Z,9E,11E,13Z,15E,19Z-hexaenoic acid, reference compound]
[4]
  leukocyte infiltration/migration into lungs and spleens (MPO): comparable

## CC/C=C\C[C@H](O)[C@@H](/C=C/C=C/C=C\C/C=C\C/C=C\CCC(=O)O)SC[C@H](N)C(=O)NCC(=O)O [PCTR2, 16-cysteinylglycinyl, 17-hydroxy-4Z,7Z,10,12,14,19Z-docosahexaenoic acid]
[1]
  macrophage phagolysosomal acidification: dose-dependent increase
[2]
  human macrophage efferocytosis (uptake of apoptotic human PMNs): dose-dependent increase
[3]
  human macrophage phagocytosis of E. coli: dose-dependent increase

## CC/C=C\C[C@H](O)[C@@H](/C=C/C=C/C=C\C/C=C\C/C=C\CCC(=O)O)SC[C@H](N)C(=O)O [PCTR3, 16-cysteinyl, 17-hydroxy-4Z,7Z,10,12,14,19Z-docosahexaenoic acid]
[1]
  macrophage phagolysosomal acidification: dose-dependent increase
[2]
  human macrophage efferocytosis (uptake of apoptotic human PMNs): dose-dependent increase
[3]
  human macrophage phagocytosis of E. coli: dose-dependent increase

## N[C@H](C(=O)O)[C@@H]1CC(Cl)=NO1 [Acivicin]
[5]; E. coli
  8-cysteinyl, 7,17-dihydroxy-docosahexaenoic acid (RCTR3) levels: decrease
  8-glutathionyl, 7,17-dihydroxy-docosahexaenoic acid (RCTR1) levels: statistically significant increase
  16-cysteinyl, 17-hydroxy-docosahexaenoic acid (PCTR3) levels: decrease
  16-glutathionyl, 17-hydroxy-docosahexaenoic acid (PCTR1) levels: increase
[5]; then DHA and E. coli
  SCI levels: significant increase
  SCII levels: reduction
[6]
  SCI level in regenerating planaria: increased
  SCII levels in regenerating planaria: decreased

## CC/C=C\C[C@H](O)/C=C/C=C\C=C\C=C\[C@@H](SC[C@H](N)C(=O)NCC(=O)O)[C@@H](O)C/C=C\CCC(=O)O [RCTR2, 8-cysteinylglycinyl, 7,17-hydroxy-4Z,9,11,13Z,15E,19Z-docosahexaenoic acid]
[1]
  macrophage phagolysosomal acidification: dose-dependent increase
[2]
  human macrophage efferocytosis (uptake of apoptotic human PMNs): dose-dependent increase
[3]
  human macrophage phagocytosis of E. coli: dose-dependent increase
